BindingDB's records for doi:10.1021/acsmedchemlett.0c00107 (Usona Institute, 2020)

target: T1, Estrogen receptor (Homo sapiens, UniProt P03372); assay: Induction of ERalpha protein degradation in human MCF7 cells assessed as reduction in ERalpha protein levels incubated for 24 hrs by In-cell western assay; details: read-out: IC50 (the source's name)
T1 sequence (P03372 whole entry): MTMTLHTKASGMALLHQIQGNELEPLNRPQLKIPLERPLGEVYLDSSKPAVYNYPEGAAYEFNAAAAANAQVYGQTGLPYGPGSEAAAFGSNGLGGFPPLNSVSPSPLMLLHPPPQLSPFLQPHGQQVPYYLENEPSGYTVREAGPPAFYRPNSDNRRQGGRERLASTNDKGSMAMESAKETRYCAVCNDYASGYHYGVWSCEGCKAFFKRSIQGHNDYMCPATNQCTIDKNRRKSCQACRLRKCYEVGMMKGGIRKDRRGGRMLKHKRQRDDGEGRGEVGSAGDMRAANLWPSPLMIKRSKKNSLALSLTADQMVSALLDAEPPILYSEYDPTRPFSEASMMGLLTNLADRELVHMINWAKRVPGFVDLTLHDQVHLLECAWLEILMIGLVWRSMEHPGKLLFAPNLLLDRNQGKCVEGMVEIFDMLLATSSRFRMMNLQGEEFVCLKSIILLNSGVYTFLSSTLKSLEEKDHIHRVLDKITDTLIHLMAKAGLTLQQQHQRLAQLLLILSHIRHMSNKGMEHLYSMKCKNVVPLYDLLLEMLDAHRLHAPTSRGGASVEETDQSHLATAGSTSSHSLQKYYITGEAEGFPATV

| DC50 [nM] | Structure (SMILES) |
| --- | --- |
| 0.5 | O=C(NCCCCOc1ccc(C(=C2C3CC4CC(C3)CC2C4)c2ccc(O)cc2)cc1)[C@H]1C[C@@H]2C=C[C@H]1C2 |
| 0.5 | CC(C)(C)OC(=O)N[C@@H](Cc1c[nH]c2ccccc12)C(=O)NCCCCOc1ccc(C(=C2C3CC4CC(C3)CC2C4)c2ccc(O)cc2)cc1 |
| 2 | O=C(NCCCCOc1ccc(C(=C2C3CC4CC(C3)CC2C4)c2ccc(O)cc2)cc1)[C@H]1CC[C@H](C(F)(F)F)CC1 |
